According to US20250241893A1, “TREATMENT OF COGNITIVE DYSFUNCTION” (GH RESEARCH IRELAND LIMITED, priority 2022, published 2025):

Columns and labels:
[1] = test system: patients with treatment-resistant major depressive disorder (TRD); test: Phase 1/2 clinical trial of inhaled 5-MeO-DMT in TRD; settings: for Patients with at least one ADR: Part A, n=4, all mild, resolved spontaneously
Description: Patients were assigned to different groups. In the context of the present invention, the group who received a single, 12 mg dose and the group who underwent an intra-day individualized dosing regimen (IDR) that allowed for multiple, escalating doses (6 mg, 12 mg and 18 mg) within a single day, driven by the intensity of the patient-reported psychedelic experience are of interest.
The data gathered include the assessment of the treated patients against several scales including the Montgomery-Asberg Depression Rating Scale (MADRS) and the Brief Psychiatric Rating Scale (BPRS).
The MADRS item that is of particular relevance to impaired concentration and memory is “concentration difficulties”. This item represents difficulties in collecting one's thoughts mounting to incapacitating lack of concentration and is scored on a scale ranging from 0 to 6. The score is 0 if the patient has no difficulties in concentrating. The score is 2 in case of occasional difficulties in collecting one's thoughts. A score of 4 is assigned in case of difficulties in concentrating and sustaining thought which reduces ability to read or hold a conversation. The score is 6 if the patient is unable to read or converse without great difficulty.
The MADRS item “reduced sleep” represents the experience of reduced duration or depth of sleep compared to the subject's own normal pattern when well. A score of 0 is assigned when the subject sleeps as usual. […] A score of 4 means that sleep is reduced or broken by at least two hours. A score of 6 means less than two or three hours sleep.
This trial was designed in two parts. Part A was an open-label, single-arm, single-dose Phase 1 trial with two dose levels (12 mg (n=4) and 18 mg (n=4)). […] The primary endpoint of Part B was to assess the effects on the severity of depression, as assessed by the proportion of patients in remission on day seven after dosing, defined as a MADRS total score of less than or equal to 10.

[2] = test system: Escherichia coli (WP2 uvrA pKM101); test: Bacterial mutation test in Escherichia coli; type: cell-based; settings: up to 5000 μg/plate, absence and presence of rat liver S-9
Description: These conditions included treatments at concentrations up to 5000 μg/plate (the maximum recommended concentration according to current regulatory guidelines), in the absence and in the presence of a rat liver metabolic activation system (S-9).

[3] = 12 mg n=4, sum of patient scores, 2 hours after dose, baseline 16
[4] = 12 mg n=4, sum of patient scores, day 1, baseline 13
[5] = 12 mg n=4, sum of patient scores, day 1, baseline 16
[6] = 12 mg n=4, sum of patient scores, day 7, baseline 12
[7] = 12 mg n=4, sum of patient scores, day 7, baseline 13
[8] = 12 mg n=4, sum of patient scores, day 7, baseline 16
[9] = IDR n=8, sum of patient scores, day 1, baseline 25
[10] = IDR n=8, sum of patient scores, day 7, baseline 25
[11] = IDR n=8, sum of patient scores, day 7, baseline 30

## COc1ccc2[nH]cc(CCN(C)C)c2c1 [5-MeO-DMT]
[1]; 12 mg n=4, sum of patient scores, 2 hours after dose, baseline 8
  MADRS Suicidal Thoughts improvement: 5
[1]; 12 mg n=4, sum of patient scores, 2 hours after dose, baseline 13
  MADRS Inner Tension improvement: 11
[1]; [3]
  MADRS Concentration Difficulties improvement: 9
  MADRS Inability to Feel improvement: 7
  MADRS Lassitude improvement: 6
  MADRS Pessimistic Thoughts improvement: 8
[1]; 12 mg n=4, sum of patient scores, 3 hours after dose, baseline 11
  BPRS Blunted Affect improvement: 3
[1]; 12 mg n=4, sum of patient scores, 3 hours after dose, baseline 13
  BPRS Emotional Withdrawal improvement: 2
[1]; 12 mg n=4, sum of patient scores, 3 hours after dose, baseline 14
  BPRS Tension improvement: 5
[1]; 12 mg n=4, sum of patient scores, 3 hours after dose, baseline 18
  BPRS Guilt Feelings improvement: 9
[1]; 12 mg n=4, sum of patient scores, 3 hours after dose, baseline 25
  BPRS Anxiety improvement: 14
[1]; 12 mg n=4, sum of patient scores, day 1, baseline 8
  MADRS Suicidal Thoughts improvement: 3
[1]; 12 mg n=4, sum of patient scores, day 1, baseline 11
  BPRS Blunted Affect improvement: 5
[1]; 12 mg n=4, sum of patient scores, day 1, baseline 12
  MADRS Reduced Sleep improvement: 2
[1]; [4]
  BPRS Emotional Withdrawal improvement: 5
  MADRS Inner Tension improvement: 10
[1]; 12 mg n=4, sum of patient scores, day 1, baseline 14
  BPRS Tension improvement: 8
[1]; [5]
  MADRS Concentration Difficulties improvement: 14
  MADRS Inability to Feel improvement: 15
  MADRS Lassitude improvement: 16
  MADRS Pessimistic Thoughts improvement: 9
[1]; 12 mg n=4, sum of patient scores, day 1, baseline 18
  BPRS Guilt Feelings improvement: 13
[1]; 12 mg n=4, sum of patient scores, day 1, baseline 25
  BPRS Anxiety improvement: 19
[1]; 12 mg n=4, sum of patient scores, day 7, baseline 8
  MADRS Suicidal Thoughts improvement: 1
[1]; 12 mg n=4, sum of patient scores, day 7, baseline 11
  BPRS Blunted Affect improvement: 6
[1]; [6]
  MADRS Reduced Sleep improvement: 6
  MADRS Reduced Sleep percentage improvement: 50.00%
[1]; [7]
  BPRS Emotional Withdrawal improvement: 7
  MADRS Inner Tension improvement: 8
[1]; 12 mg n=4, sum of patient scores, day 7, baseline 14
  BPRS Tension improvement: 8
[1]; [8]
  MADRS Concentration Difficulties improvement: 13
  MADRS Inability to Feel improvement: 15
  MADRS Lassitude improvement: 13
  MADRS Pessimistic Thoughts improvement: 8
[1]; 12 mg n=4, sum of patient scores, day 7, baseline 18
  BPRS Guilt Feelings improvement: 13
[1]; 12 mg n=4, sum of patient scores, day 7, baseline 25
  BPRS Anxiety improvement: 19
[1]; IDR n=8, sum of patient scores, 2 hours after last dose, baseline 11
  MADRS Suicidal Thoughts improvement: 8
[1]; IDR n=8, sum of patient scores, 2 hours after last dose, baseline 26
  MADRS Inner Tension improvement: 15
[1]; IDR n=8, sum of patient scores, 2 hours after last dose, baseline 27
  MADRS Lassitude improvement: 17
[1]; IDR n=8, sum of patient scores, 2 hours after last dose, baseline 28
  MADRS Pessimistic Thoughts improvement: 21
[1]; IDR n=8, sum of patient scores, 2 hours after last dose, baseline 30
  MADRS Concentration Difficulties improvement: 19
[1]; IDR n=8, sum of patient scores, 2 hours after last dose, baseline 36
  MADRS Inability to Feel improvement: 24
[1]; IDR n=8, sum of patient scores, 3 hours after last dose, baseline 13
  BPRS Emotional Withdrawal improvement: 5
[1]; IDR n=8, sum of patient scores, 3 hours after last dose, baseline 15
  BPRS Blunted Affect improvement: 4
[1]; IDR n=8, sum of patient scores, 3 hours after last dose, baseline 16
  BPRS Tension improvement: 5
[1]; IDR n=8, sum of patient scores, 3 hours after last dose, baseline 34
  BPRS Guilt Feelings improvement: 20
[1]; IDR n=8, sum of patient scores, 3 hours after last dose, baseline 37
  BPRS Anxiety improvement: 18
[1]; IDR n=8, sum of patient scores, day 1, baseline 11
  MADRS Suicidal Thoughts improvement: 10
[1]; IDR n=8, sum of patient scores, day 1, baseline 13
  BPRS Emotional Withdrawal improvement: 5
[1]; IDR n=8, sum of patient scores, day 1, baseline 15
  BPRS Blunted Affect improvement: 7
[1]; IDR n=8, sum of patient scores, day 1, baseline 16
  BPRS Tension improvement: 5
[1]; [9]
  MADRS Reduced Sleep improvement: 13
  MADRS Reduced Sleep percentage improvement: 52.00%
[1]; IDR n=8, sum of patient scores, day 1, baseline 26
  MADRS Inner Tension improvement: 20
[1]; IDR n=8, sum of patient scores, day 1, baseline 27
  MADRS Lassitude improvement: 22
[1]; IDR n=8, sum of patient scores, day 1, baseline 28
  MADRS Pessimistic Thoughts improvement: 24
[1]; IDR n=8, sum of patient scores, day 1, baseline 30
  MADRS Concentration Difficulties improvement: 29
[1]; IDR n=8, sum of patient scores, day 1, baseline 34
  BPRS Guilt Feelings improvement: 23
[1]; IDR n=8, sum of patient scores, day 1, baseline 36
  MADRS Inability to Feel improvement: 34
[1]; IDR n=8, sum of patient scores, day 1, baseline 37
  BPRS Anxiety improvement: 21
[1]; IDR n=8, sum of patient scores, day 7, baseline 11
  MADRS Suicidal Thoughts improvement: 8
[1]; IDR n=8, sum of patient scores, day 7, baseline 13
  BPRS Emotional Withdrawal improvement: 5
[1]; IDR n=8, sum of patient scores, day 7, baseline 15
  BPRS Blunted Affect improvement: 7
[1]; IDR n=8, sum of patient scores, day 7, baseline 16
  BPRS Tension improvement: 6
[1]; [10]
  MADRS Reduced Sleep improvement: 16
  MADRS Reduced Sleep percentage improvement: 64.00%
[1]; IDR n=8, sum of patient scores, day 7, baseline 26
  MADRS Inner Tension improvement: 14
[1]; IDR n=8, sum of patient scores, day 7, baseline 27
  MADRS Lassitude improvement: 24
[1]; IDR n=8, sum of patient scores, day 7, baseline 28
  MADRS Pessimistic Thoughts improvement: 25
[1]; [11]
  MADRS Concentration Difficulties improvement: 21
  MADRS Concentration Difficulties percentage improvement: 70.00%
[1]; IDR n=8, sum of patient scores, day 7, baseline 34
  BPRS Guilt Feelings improvement: 24
[1]; IDR n=8, sum of patient scores, day 7, baseline 36
  MADRS Inability to Feel improvement: 30
[1]; IDR n=8, sum of patient scores, day 7, baseline 37
  BPRS Anxiety improvement: 20
[1]; Part A (12 mg and 18 mg)
  SAEs: No SAEs were reported
[1]; 12 mg single dose
  Patients with at least one ADR: 3 of 4
[1]; 18 mg single dose
  Patients with at least one ADR: 3 of 4
[2]
  Mutation induction: did not induce mutation
